From paper PMC6009944, “Synthesis, antitumour activities and molecular docking of thiocarboxylic acid ester-based NSAID scaffolds: COX-2 inhibition and mechanistic studies” (Journal of Enzyme Inhibition and Medicinal Chemistry, 2018)
Read-outs that look alike come from different tables or passages of the source.

Tests used:
HepG2 = assay: MTT antitumor assay, HepG2; details: Homo sapiens, HepG2, read-out: IC50 (μM) HepG2
Procedure: (§2) The evaluation of the antitumour activity was performed using tetrazolium salt MTT (3–(4,5-dimethyl-2-thiazolyl)-2,5-diphenyl-2H-tetrazolium bromide) assay as reported[47–50].

MCF-7 = assay: MTT antitumor assay, MCF-7
Procedure: as §2

HCT-116 = assay: MTT antitumor assay, HCT-116; details: Homo sapiens
Procedure: as §2

Caco-2 = assay: MTT antitumor assay, Caco-2; details: Homo sapiens, Caco-2, read-out: IC50 (μM) Caco-2
Procedure: as §2

cSrc = target: T1, cSrc (Homo sapiens, UniProt P12931); assay: Kinase inhibition assay (Kinase-Glo Plus), cSrc; format: biochemical; details: for inhibition at 10 µM: read-out: % inhibition, 10 μM compound
T1 construct: purchased BPS Bioscience
Procedure: (§1) Luminescence signal was measured using a BioTek Synergy 2 microplate reader.

HER2 = target: T2, HER2 (Homo sapiens, UniProt P04626); assay: Kinase inhibition assay (Kinase-Glo Plus), HER2; format: biochemical; details: read-out: % inhibition of 10 μM HER2; 10 μM compound
T2 construct: purchased BPS Bioscience
Procedure: as §1

COX-2 = target: T3, COX-2 (Ovis aries, UniProt P79208); assay: In vitro COX-2 enzyme inhibition assay (colorimetric kit); details: for SI, selectivity index (COX-1 IC50/COX-2 IC50): COX-2 selectivity over COX-1
T3 sequence (P79208 17-603): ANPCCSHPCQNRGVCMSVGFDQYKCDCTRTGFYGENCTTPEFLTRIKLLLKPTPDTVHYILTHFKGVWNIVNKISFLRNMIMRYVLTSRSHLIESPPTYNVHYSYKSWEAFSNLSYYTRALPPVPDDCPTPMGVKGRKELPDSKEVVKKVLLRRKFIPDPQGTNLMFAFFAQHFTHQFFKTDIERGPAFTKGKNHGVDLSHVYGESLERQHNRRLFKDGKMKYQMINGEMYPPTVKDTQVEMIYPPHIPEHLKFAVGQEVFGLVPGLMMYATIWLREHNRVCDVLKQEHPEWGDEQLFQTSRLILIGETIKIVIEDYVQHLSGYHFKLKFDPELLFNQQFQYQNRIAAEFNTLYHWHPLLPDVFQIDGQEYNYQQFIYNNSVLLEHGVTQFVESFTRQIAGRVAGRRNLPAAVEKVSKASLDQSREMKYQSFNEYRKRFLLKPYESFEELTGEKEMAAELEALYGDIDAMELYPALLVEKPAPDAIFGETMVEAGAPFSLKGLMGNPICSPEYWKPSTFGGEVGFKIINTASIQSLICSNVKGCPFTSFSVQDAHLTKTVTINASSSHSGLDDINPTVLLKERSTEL
Procedure: (§3) IC50 (represented in μM) (The half-maximal inhibitor concentration) values were determined[56–59], and the SI values were calculated[51]^,[52]^,[55] as IC50 (COX-1)/IC50 (COX-2).

EGFR = target: T4, EGFR (Homo sapiens, UniProt P00533); assay: Kinase inhibition assay (Kinase-Glo Plus), EGFR; format: biochemical; details: read-out: % inhibition of 10 μM EGFR; 10 μM compound
T4 construct: purchased BPS Bioscience
Procedure: as §1

HER4 = target: T5, HER4 (Homo sapiens, UniProt Q15303); assay: Kinase inhibition assay (Kinase-Glo Plus), HER4; format: biochemical; details: read-out: % inhibition of 10 μM HER4; 10 μM compound
T5 construct: purchased BPS Bioscience
Procedure: as §1

COX-1 = target: T6, COX-1 (Ovis aries, UniProt P05979); assay: In vitro COX-1 enzyme inhibition assay (colorimetric kit)
T6 sequence (P05979 25-600): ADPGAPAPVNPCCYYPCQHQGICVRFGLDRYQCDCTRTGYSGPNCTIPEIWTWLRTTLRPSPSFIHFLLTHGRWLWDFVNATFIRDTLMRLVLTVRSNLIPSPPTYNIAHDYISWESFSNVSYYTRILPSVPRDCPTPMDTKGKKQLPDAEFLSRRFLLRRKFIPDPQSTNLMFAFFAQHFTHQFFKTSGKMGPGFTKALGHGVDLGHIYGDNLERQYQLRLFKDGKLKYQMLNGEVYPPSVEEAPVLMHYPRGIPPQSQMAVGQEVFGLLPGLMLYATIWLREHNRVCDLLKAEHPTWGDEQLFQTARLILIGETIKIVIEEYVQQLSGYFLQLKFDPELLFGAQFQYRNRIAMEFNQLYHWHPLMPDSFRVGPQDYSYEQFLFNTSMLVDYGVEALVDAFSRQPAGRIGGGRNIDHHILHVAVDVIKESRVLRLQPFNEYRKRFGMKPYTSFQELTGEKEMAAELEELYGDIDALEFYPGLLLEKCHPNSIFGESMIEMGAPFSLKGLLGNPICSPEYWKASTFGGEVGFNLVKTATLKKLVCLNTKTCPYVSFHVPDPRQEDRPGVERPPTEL
Procedure: as §3

[1] = Homo sapiens, MCF7, read-out: IC50 (μM) MCF-7, human breast adenocarcinoma cell line, MTT, mean ± SD, n = 3
[2] = HCT-116, read-out: IC50 (μM) HCT-116, human colon cancer cell line, MTT, mean ± SD, n = 3

T4 sequence (P00533 25-1210): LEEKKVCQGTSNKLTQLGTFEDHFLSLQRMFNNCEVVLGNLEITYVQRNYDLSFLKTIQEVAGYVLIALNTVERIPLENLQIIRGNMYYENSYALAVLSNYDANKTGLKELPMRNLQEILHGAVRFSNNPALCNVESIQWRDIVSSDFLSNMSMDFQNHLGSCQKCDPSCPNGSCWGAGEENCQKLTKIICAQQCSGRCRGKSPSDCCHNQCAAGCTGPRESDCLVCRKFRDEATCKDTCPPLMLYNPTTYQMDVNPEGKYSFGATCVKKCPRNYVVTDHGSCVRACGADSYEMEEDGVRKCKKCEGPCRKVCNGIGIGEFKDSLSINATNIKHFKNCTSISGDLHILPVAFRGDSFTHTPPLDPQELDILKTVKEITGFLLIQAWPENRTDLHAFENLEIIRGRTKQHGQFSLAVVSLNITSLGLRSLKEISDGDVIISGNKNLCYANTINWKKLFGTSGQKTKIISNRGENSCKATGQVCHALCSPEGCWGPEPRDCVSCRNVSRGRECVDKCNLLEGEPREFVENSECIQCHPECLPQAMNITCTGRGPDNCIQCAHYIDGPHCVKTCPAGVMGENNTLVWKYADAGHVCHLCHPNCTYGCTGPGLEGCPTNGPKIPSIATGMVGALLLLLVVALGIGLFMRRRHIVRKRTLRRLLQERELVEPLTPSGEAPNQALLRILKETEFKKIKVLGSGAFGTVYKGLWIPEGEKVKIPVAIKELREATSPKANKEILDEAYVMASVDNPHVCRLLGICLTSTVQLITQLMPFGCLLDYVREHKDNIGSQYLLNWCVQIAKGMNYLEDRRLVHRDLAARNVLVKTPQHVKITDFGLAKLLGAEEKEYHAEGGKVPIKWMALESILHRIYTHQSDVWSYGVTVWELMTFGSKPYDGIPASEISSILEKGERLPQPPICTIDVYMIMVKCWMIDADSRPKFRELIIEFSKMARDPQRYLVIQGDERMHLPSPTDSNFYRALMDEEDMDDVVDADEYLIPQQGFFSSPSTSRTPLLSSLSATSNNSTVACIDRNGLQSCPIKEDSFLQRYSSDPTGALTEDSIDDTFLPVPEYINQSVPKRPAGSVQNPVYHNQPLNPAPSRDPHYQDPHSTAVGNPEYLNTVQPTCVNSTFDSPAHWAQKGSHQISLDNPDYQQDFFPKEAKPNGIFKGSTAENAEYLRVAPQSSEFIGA
T5 sequence (Q15303 26-1308): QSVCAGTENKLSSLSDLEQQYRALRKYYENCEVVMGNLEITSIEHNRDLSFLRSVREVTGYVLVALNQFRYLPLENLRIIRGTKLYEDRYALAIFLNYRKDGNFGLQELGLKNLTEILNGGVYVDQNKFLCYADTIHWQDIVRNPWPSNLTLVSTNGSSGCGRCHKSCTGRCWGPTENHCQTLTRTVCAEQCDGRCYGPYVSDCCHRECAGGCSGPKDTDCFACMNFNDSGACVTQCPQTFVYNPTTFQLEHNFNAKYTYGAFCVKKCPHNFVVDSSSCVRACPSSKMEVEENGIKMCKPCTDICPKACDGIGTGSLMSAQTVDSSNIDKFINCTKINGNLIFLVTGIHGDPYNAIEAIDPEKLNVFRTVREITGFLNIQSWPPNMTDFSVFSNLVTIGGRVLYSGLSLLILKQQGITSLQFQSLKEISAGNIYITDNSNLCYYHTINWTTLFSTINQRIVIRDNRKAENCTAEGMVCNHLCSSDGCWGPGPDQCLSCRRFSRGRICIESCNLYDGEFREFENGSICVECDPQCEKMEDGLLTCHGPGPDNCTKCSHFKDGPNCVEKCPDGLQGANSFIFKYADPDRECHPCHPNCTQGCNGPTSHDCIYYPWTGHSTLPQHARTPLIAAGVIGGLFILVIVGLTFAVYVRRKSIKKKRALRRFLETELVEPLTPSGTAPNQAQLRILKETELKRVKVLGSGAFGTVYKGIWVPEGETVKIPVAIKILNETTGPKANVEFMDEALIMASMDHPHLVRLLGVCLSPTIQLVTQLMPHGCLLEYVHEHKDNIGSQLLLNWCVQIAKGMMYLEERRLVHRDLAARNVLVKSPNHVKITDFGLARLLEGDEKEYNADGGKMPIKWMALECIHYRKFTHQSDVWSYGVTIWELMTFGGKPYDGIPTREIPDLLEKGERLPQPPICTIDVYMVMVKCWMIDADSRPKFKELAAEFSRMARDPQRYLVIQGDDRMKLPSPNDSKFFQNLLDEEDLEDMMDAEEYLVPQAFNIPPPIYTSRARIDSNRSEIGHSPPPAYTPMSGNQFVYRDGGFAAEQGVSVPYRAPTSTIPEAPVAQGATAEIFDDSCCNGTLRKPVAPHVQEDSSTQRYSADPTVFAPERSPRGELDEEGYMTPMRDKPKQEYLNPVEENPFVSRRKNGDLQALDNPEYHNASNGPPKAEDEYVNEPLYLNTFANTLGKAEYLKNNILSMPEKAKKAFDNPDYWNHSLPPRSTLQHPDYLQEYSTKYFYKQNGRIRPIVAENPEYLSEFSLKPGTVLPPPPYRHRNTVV
T1 sequence (P12931 whole entry): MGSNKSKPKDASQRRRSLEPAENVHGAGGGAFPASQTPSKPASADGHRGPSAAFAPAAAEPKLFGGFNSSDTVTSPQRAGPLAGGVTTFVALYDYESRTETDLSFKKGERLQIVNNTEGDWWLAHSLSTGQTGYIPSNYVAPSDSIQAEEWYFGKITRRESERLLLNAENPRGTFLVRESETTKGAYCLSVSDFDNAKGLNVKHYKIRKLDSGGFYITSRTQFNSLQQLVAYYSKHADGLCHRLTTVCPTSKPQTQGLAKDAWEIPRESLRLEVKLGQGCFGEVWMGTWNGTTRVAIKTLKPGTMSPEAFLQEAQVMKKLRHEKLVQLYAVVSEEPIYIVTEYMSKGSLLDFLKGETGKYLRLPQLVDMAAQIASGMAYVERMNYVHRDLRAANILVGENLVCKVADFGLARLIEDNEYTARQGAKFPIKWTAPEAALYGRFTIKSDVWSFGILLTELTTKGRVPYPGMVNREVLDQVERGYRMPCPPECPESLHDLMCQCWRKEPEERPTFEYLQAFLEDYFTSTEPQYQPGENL
T2 sequence (P04626 23-1255): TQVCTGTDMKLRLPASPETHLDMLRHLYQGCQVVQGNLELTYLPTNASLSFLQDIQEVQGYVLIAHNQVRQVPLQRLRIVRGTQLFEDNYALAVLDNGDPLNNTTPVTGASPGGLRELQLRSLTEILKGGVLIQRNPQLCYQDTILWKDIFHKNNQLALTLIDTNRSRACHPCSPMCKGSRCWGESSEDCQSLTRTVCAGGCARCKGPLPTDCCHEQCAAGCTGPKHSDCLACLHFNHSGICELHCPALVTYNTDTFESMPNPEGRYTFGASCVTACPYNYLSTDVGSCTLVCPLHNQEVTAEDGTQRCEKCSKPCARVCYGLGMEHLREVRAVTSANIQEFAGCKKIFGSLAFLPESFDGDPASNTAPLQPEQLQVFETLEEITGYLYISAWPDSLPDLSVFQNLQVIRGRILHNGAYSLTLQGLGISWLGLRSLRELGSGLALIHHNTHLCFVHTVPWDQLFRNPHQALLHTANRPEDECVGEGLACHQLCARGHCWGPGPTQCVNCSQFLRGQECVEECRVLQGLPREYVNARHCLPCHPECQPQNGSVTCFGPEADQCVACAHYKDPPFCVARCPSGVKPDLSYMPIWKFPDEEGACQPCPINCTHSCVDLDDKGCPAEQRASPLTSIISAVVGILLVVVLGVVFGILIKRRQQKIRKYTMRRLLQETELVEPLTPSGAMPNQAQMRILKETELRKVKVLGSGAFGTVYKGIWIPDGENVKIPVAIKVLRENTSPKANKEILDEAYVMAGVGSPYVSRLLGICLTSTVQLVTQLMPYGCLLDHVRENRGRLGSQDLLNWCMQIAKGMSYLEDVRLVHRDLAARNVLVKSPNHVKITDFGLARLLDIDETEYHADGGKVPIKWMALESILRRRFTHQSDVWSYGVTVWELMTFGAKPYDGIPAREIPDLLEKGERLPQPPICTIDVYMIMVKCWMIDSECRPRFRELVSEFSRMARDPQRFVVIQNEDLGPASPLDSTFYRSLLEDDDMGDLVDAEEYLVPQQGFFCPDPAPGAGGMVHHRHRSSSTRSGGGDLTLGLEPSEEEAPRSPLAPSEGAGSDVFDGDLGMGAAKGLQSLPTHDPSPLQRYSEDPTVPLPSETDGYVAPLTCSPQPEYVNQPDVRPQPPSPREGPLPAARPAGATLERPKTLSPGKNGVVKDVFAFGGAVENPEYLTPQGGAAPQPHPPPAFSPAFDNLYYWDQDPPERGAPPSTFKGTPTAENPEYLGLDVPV

IC50 (HepG2)	IC50 (MCF-7; [1])	IC50 (HCT-116; [2])	IC50 (Caco-2)	melting point	inhibition at 10 µM (cSrc)	inhibition at 10 µM (HER2)	IC50 (COX-2)	SI, selectivity index (COX-1 IC50/COX-2 IC50) (COX-2)	inhibition at 10 µM (EGFR)	inhibition at 10 µM (HER4)	IC50 (COX-1)	IC50 (MCF-7; read-out: IC50 (μM) MCF-7, human breast adenocarcinoma cell line, MTT, mean ± SD, n = 3)	SMILES	IC50 (MCF-7; Homo sapiens, MCF7, read-out: IC50 (μM) MCF-7)	IC50 (HCT-116; HCT-116, read-out: IC50 (μM) HCT-116)	inhibition at 1 µM (cSrc; read-out: % inhibition cSrc)
19.7 ± 1.57 µM	28.9 ± 1.58 µM	39.5 ± 2.61 µM	35.6 ± 2.62 µM	105 to 106 °C	–	–	–	–	–	–	–	–	COc1ccc2cc(C(C)C(=O)SC3CCCCC3)ccc2c1 [5b, S-cyclohexyl-(S)-2–(6-methoxynaphthalen-2-yl)propanethioate]	–	–	–
26.8 ± 2.08 µM	6.11 ± 0.31 µM	46.9 ± 3.23 µM	10.2 ± 0.92 µM	101 to 102 °C	5%	1%	0.25 ± 0.017 µM	>200.0	6%	5%	> 50 µM	–	O=C(Cc1ccccc1Nc1c(Cl)cccc1Cl)Sc1ccccc1 [6a, S-phenyl-2–(2-((2,6-dichlorophenyl)amino)phenyl)ethanethioate]	–	–	–
> 100 µM	–	91.2 ± 4.96 µM	> 100 µM	88 to 90 °C	–	–	–	–	–	–	–	95.3 ± 4.96 µM	O=C(Cc1ccccc1Nc1c(Cl)cccc1Cl)SC1CCCCC1 [6b, S-cyclohexyl-2–(2-((2,6-dichlorophenyl)amino)phenyl)ethanethioate]	–	–	–
7.86 ± 0.39 µM	9.65 ± 0.96 µM	14.6 ± 1.24 µM	18.1 ± 1.73 µM	133 to 135 °C	1%	0%	0.22 ± 0.019 µM	>227.3	0%	4%	> 50 µM	–	COc1ccc2c(c1)c(CC(=O)Sc1ccccc1)c(C)n2C(=O)c1ccc(Cl)cc1 [7a, S-phenyl-2–(1-(4-chlorobenzoyl)-5-methoxy-2-methyl-1H-indol-3-yl)ethanethioate]	–	–	–
14.9 ± 1.38 µM	17.1 ± 1.4 µM	34 ± 2.25 µM	29.1 ± 2.45 µM	97 to 98 °C	3%	0%	0.49 ± 0.044 µM	>102.0	1%	3%	> 50 µM	–	COc1ccc2c(c1)c(CC(=O)SC1CCCCC1)c(C)n2C(=O)c1ccc(Cl)cc1 [7b, S-cyclohexyl-2–(1-(4-chlorobenzoyl)-5-methoxy-2-methyl-1H-indol-3-yl)ethanethioate]	–	–	–
7.35 ± 0.34 µM	8.62 ± 0.72 µM	9.73 ± 0.85 µM	15.4 ± 1.37 µM	–	4%	0%	0.2 ± 0.016 µM	>250.0	6%	10%	> 50 µM	–	CC1=C(CC(=O)Sc2ccccc2)c2cc(F)ccc2C1=Cc1ccc([S+](C)[O-])cc1 (centres unmarked) [8a, S-phenyl-2–(5-fluoro-2-methyl-1–(4-(methylsulfinyl)benzylidene)-1H-inden-3-yl)ethanethioate]	–	–	–
22.3 ± 1.96 µM	34.1 ± 2.07 µM	46.7 ± 2.93 µM	43.8 ± 2.96 µM	121 to 122 °C	–	–	0.6 ± 0.055 µM	>83.3	–	–	> 50 µM	–	CC1=C(CC(=O)SC2CCCCC2)c2cc(F)ccc2C1=Cc1ccc([S+](C)[O-])cc1 (centres unmarked) [8b, S-cyclohexyl-2–(5-fluoro-2-methyl-1–(4-(methylsulfinyl)benzylidene)-1H-inden-3-yl)ethanethioate]	–	–	–
5.4 ± 0.25 µM	7.1 ± 0.49 µM	6.2 ± 0.67 µM	7.7 ± 0.57 µM	–	–	–	–	–	–	–	–	–	CN(C)C/C=C/C(=O)Nc1cc2c(Nc3ccc(F)c(Cl)c3)ncnc2cc1O[C@H]1CCOC1 [Afatinib, reference compound]	–	–	–
–	–	–	–	–	–	–	–	–	–	–	–	–	CN[C@@H]1C[C@H]2O[C@@](C)([C@@H]1OC)n1c3ccccc3c3c4c(c5c6ccccc6n2c5c31)C(=O)NC4 [Staurosporine, reference compound]	–	–	100%

SMILES	IC50 (HepG2)	IC50 (MCF-7; [1])	IC50 (HCT-116; [2])	IC50 (Caco-2)	melting point	inhibition at 10 µM (cSrc)	inhibition at 10 µM (HER2)	IC50 (COX-2)	SI, selectivity index (COX-1 IC50/COX-2 IC50) (COX-2)	inhibition at 10 µM (EGFR)	inhibition at 10 µM (HER4)	IC50 (COX-1)	IC50 (MCF-7; read-out: IC50 (μM) MCF-7, human breast adenocarcinoma cell line, MTT, mean ± SD, n = 3)	IC50 (MCF-7; Homo sapiens, MCF7, read-out: IC50 (μM) MCF-7)	IC50 (HCT-116; HCT-116, read-out: IC50 (μM) HCT-116)	inhibition at 1 µM (cSrc; read-out: % inhibition cSrc)
Cc1ccc(-c2cc(C(F)(F)F)nn2-c2ccc(S(N)(=O)=O)cc2)cc1 [Celecoxib, reference compound]	25.6 ± 2.3 µM	–	–	42.7 ± 3.1 µM	–	–	–	–	–	–	–	–	–	31.3 ± 2.5 µM	29.5 ± 2.1 µM	–
